Consider 4 compounds from patent US20210346383A1, “COMPOUNDS, COMPOSITIONS AND METHODS FOR TREATING OR PREVENTING HER-DRIVEN CANCERS” (Rain Therapeutics Inc., priority 2018, published 2021).

SMILES strings stand for the structures. Like-named read-outs stand apart in the source and are kept apart here.

In general, IC50 refers to the point on the concentration scale where inhibition reaches its midpoint.

Series [1] addresses Ba/F3 cells expressing HER2 YVMA + C805S (YVMACS) (Homo sapiens, UniProt P04626, DUP772-775/C805S, cells depend on it). As to the kind of experiment: Ba/F3 growth inhibitory assay, HER2 exon 20 mutations. Conditions: read-out: IC50, growth inhibition. It is filed as cell-based, murine.
Description: (§1) The murine pro-B cell line Ba/F3 (RCB0805) was obtained from RIKEN Bio Resource Center (Tsukuba, Japan). […] Several Ba/F3 lines which were established in the previous study were also used in this study.
(§2) Briefly, 2000 cells were seeded in each well of 96-well plates. Twenty-four hours later, DMSO or a TKI at indicated drug concentration were added, and the cells were cultured for additional 72 hours. A colorimetric assay was used to estimate the growth inhibition of each drug using the Cell Counting Kit-8 reagent (Dojindo Laboratories, Kumamoto, Japan). Each experiment was performed in triplicate.
(§3) HER2 A775_G776insYVMA, G776delinsVC, P780_Y781insGSP, YVMA+C805S (YVMACS) and VC+C805S (VCCS) mutations were introduced into Ba/F3 cells using retroviral vector.
The target in series [2] is Ba/F3 cells expressing HER2 G776delinsVC (Homo sapiens, UniProt P04626, DELINS776-776VC, cells depend on it). The series is described as above. It is filed as cell-based, murine. Conditions: read-out: IC50, growth inhibition.
Description: as §1, §2, §3
For series [3], the target named is Ba/F3 cells expressing HER2 VC + C805S (VCCS) (Homo sapiens, UniProt P04626, DELINS776-776VC/C805S, cells depend on it). Described as above. Conditions: read-out: IC50, growth inhibition. It is filed as cell-based, murine.
Description: as §1, §2, §3
For series [4], the target named is Ba/F3 cells expressing HER2 P780_Y781insGSP (Homo sapiens, UniProt P04626, DUP778-780, cells depend on it). Described as above. It is filed as cell-based, murine. Conditions: read-out: IC50, growth inhibition.
Description: as §1, §2, §3
The test system of series [5] is H-2170 (ERBB2 amplification). As to the kind of experiment: cells. It is filed as cell-based. Conditions: Homo sapiens.
Series [6] has as its target Ba/F3 cells expressing HER2 A775_G776insYVMA (Homo sapiens, UniProt P04626, DUP772-775, cells depend on it). As to the kind of experiment: Ba/F3 growth inhibitory assay, HER2 exon 20 mutations. Conditions: read-out: IC50, growth inhibition. It is filed as cell-based, murine.
Description: as §1, §2, §3
Series [7] has as its system H-1781 (ERBB2 p.G776Ins V_G/C). The series can be described thus: cells. It is filed as cell-based.
Series [8] has as its system CALU-3 (ERBB2 amplification). The series can be described thus: cells. It is filed as cell-based. The note with it: Homo sapiens.
The test system of series [9] is CUTO-18 (EGFR S768_D770dupSVD). The series can be described thus: cells. The note with it: read-out: Cellular Anti-Proliferative Assay IC50.
Series [10] relates to CUTO-14 (EGFR A767_V769dupASV). As to the kind of experiment: cells. Conditions: CUTO14, read-out: Cellular Anti-Proliferative Assay IC50.
The test system of series [11] is PC9 brain metastasis model. Conditions: cited from earlier work.
The test system of series [12] is CUTO-17 (EGFR N771_H773dupNPH). As to the kind of experiment: cells. Conditions: CUTO17, read-out: Cellular Anti-Proliferative Assay IC50.
Series [13] deals with Ba/F3 cells expressing EGFR H773insH (Homo sapiens, UniProt P00533, DUP773-773, cells depend on it). The series can be described thus: Ba/F3 cell growth inhibition assay (Cell Counting Kit-8). It is filed as cell-based, murine. The note with it: 72 hours, read-out: IC50, growth inhibition.
Series [14] concerns the target Ba/F3 cells expressing EGFR H773insNPH (Homo sapiens, UniProt P00533, DUP771-773, cells depend on it). The description is as above. Conditions: 72 hours, read-out: IC50, growth inhibition. It is filed as cell-based, murine.
The target in series [15] is Ba/F3 cells expressing EGFR D770insSVD (Homo sapiens, UniProt P00533, DUP768-770, cells depend on it). The series is described as above. Conditions: 72 hours, read-out: IC50, growth inhibition. It is filed as cell-based, murine.
For series [16], the target named is Ba/F3 cells expressing EGFR A763insFQEA (Homo sapiens, UniProt P00533, INS763FQEA, cells depend on it). Described as above. It is filed as cell-based, murine. The note with it: 72 hours, read-out: IC50, growth inhibition.
For series [17], the target named is Ba/F3 cells expressing EGFR V769insASV (Homo sapiens, UniProt P00533, DUP767-769, cells depend on it). The series is described as above. The note with it: 72 hours, read-out: IC50, growth inhibition. It is filed as cell-based, murine.
In series [18] the target is Ba/F3 cells expressing EGFR Del 19 + C797S (Homo sapiens, UniProt P00533, DEL746-750/C797S, cells depend on it). Described as above. The note with it: Ba/F3 EGFR Del 19 + C797S; 72 hours; read-out: IC50, growth inhibition. It is filed as cell-based, murine.
In series [19] the target is Ba/F3 cells expressing EGFR L858R + T790M + C797S (Homo sapiens, UniProt P00533, T790M/C797S/L858R, cells depend on it). The description is as above. It is filed as cell-based, murine. Conditions: 72 hours, read-out: IC50, growth inhibition.
In series [20] the target is Ba/F3 cells expressing EGFR L858R + C797S (Homo sapiens, UniProt P00533, C797S/L858R, cells depend on it). The description is as above. It is filed as cell-based, murine. The note with it: 72 hours, read-out: IC50, growth inhibition.
Series [21] has as its target Ba/F3 cells expressing EGFR Del 19 (Homo sapiens, UniProt P00533, DEL746-750, cells depend on it). Described as above. It is filed as cell-based, murine. Conditions: Ba/F3 EGFR Del 19; 72 hours; read-out: IC50, growth inhibition.
For series [22], the target named is Ba/F3 cells expressing EGFR Del 19 + T790M + C797S (Homo sapiens, UniProt P00533, DEL746-750/T790M/C797S, cells depend on it). Described as above. It is filed as cell-based, murine. Conditions: Ba/F3 EGFR Del 19 + T790M + C797S; 72 hours; read-out: IC50, growth inhibition.
Series [23] concerns the target Ba/F3 cells expressing EGFR L858R (Homo sapiens, UniProt P00533, L858R, cells depend on it). The series is described as above. It is filed as cell-based, murine. Conditions: 72 hours, read-out: IC50, growth inhibition.
Series [24] relates to H1975-luc human NSCLC cells, intracranial. Conditions: cited from earlier work.
Where [25] appears, read: 10 mg/kg and 25 mg/kg once daily, 49-day treatment.

Chain of Ba/F3 cells expressing HER2 A775_G776insYVMA (P04626 with tags, fused parts or gaps DUP772-775): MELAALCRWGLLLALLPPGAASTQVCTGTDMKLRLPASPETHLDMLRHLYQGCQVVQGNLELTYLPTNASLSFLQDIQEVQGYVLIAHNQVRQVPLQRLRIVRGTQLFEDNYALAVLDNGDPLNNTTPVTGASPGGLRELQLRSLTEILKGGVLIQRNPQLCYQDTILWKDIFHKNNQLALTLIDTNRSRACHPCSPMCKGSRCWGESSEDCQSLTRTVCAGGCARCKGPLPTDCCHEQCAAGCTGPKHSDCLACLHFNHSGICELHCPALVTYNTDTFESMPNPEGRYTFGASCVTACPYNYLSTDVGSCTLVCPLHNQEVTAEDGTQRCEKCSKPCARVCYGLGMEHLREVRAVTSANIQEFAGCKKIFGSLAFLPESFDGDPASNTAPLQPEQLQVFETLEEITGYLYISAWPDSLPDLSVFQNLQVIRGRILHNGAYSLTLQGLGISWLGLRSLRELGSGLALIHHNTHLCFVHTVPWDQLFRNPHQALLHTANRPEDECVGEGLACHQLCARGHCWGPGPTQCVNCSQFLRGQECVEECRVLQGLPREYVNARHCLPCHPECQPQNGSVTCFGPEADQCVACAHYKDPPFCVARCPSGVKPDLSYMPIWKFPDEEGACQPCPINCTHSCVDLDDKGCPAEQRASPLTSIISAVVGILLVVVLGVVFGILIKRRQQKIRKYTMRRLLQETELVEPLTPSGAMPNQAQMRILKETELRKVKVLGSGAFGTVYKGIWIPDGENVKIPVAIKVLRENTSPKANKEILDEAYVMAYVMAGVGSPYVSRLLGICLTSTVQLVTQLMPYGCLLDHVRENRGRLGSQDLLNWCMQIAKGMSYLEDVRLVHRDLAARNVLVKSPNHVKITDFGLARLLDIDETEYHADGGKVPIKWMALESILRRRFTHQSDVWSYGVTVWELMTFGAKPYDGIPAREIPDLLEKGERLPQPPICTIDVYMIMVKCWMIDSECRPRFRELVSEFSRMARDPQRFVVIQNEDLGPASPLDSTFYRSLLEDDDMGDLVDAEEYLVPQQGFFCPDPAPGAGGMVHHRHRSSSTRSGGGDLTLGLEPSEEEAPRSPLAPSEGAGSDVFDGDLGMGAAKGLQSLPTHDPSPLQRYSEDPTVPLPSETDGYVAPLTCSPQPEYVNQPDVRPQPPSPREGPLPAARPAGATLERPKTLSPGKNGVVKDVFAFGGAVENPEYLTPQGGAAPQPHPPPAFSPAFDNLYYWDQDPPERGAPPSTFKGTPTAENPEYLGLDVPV
Chain of Ba/F3 cells expressing HER2 G776delinsVC (P04626 with tags, fused parts or gaps DELINS776-776VC): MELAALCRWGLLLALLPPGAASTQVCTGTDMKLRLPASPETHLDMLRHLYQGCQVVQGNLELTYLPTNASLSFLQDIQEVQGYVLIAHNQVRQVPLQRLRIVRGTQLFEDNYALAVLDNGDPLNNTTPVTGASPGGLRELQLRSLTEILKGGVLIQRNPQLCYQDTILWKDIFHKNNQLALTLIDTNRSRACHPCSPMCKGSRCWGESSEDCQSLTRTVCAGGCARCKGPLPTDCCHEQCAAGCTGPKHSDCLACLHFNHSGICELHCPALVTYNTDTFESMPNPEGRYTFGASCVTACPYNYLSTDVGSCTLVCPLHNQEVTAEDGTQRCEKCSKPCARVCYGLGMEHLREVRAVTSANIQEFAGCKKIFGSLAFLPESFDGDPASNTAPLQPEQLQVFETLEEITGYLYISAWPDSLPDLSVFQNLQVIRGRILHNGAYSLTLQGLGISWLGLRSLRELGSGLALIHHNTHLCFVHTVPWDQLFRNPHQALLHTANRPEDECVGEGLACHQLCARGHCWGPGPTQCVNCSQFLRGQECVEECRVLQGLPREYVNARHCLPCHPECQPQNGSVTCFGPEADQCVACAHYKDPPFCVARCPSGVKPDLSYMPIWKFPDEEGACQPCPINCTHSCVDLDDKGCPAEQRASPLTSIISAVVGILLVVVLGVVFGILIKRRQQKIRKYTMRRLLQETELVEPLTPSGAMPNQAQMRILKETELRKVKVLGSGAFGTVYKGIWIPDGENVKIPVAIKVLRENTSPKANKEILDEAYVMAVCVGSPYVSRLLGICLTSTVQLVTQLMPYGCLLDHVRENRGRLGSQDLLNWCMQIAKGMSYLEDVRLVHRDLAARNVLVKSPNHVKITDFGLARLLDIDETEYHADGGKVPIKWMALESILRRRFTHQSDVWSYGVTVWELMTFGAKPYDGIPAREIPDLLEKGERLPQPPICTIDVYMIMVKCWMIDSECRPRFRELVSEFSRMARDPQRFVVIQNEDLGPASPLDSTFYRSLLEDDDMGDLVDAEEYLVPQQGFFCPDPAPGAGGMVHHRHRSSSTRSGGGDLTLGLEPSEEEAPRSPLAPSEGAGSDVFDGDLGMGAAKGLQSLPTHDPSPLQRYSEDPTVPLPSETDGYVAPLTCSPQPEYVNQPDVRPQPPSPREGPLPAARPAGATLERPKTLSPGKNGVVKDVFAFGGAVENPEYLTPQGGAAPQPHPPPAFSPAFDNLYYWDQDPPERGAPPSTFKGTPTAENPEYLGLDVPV
Chain of Ba/F3 cells expressing HER2 P780_Y781insGSP (P04626 with tags, fused parts or gaps DUP778-780): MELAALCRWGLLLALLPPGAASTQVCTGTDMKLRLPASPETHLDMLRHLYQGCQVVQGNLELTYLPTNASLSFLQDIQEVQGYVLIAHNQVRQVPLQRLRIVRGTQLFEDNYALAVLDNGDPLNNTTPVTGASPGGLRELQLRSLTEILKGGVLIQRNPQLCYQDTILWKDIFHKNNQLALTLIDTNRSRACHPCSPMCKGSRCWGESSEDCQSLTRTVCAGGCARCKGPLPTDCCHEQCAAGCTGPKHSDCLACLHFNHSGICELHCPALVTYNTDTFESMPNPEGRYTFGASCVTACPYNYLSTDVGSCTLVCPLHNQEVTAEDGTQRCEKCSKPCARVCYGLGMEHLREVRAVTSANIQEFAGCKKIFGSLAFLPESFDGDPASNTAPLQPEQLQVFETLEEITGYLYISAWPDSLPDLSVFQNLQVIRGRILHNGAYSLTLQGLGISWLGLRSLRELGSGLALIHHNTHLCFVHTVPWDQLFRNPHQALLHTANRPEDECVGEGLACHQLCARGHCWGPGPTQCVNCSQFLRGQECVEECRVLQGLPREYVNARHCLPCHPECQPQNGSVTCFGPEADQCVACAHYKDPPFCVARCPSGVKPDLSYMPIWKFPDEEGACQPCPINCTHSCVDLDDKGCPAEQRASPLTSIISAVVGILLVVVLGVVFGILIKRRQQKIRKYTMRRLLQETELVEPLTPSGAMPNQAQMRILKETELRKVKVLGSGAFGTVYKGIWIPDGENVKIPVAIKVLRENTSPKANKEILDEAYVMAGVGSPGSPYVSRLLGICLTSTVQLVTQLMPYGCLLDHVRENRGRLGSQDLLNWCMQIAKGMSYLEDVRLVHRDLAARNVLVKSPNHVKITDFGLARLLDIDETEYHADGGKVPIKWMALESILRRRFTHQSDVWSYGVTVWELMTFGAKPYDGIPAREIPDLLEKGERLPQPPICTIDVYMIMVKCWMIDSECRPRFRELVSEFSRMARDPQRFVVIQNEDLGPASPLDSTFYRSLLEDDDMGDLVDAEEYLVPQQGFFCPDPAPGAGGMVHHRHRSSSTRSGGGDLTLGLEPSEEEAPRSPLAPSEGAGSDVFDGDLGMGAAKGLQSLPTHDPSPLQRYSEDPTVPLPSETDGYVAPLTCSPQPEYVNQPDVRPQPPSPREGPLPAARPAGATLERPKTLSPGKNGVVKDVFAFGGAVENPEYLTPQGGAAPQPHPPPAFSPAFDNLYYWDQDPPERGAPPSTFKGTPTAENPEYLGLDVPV
Chain of Ba/F3 cells expressing HER2 VC + C805S (VCCS) (P04626 with tags, fused parts or gaps DELINS776-776VC/C805S): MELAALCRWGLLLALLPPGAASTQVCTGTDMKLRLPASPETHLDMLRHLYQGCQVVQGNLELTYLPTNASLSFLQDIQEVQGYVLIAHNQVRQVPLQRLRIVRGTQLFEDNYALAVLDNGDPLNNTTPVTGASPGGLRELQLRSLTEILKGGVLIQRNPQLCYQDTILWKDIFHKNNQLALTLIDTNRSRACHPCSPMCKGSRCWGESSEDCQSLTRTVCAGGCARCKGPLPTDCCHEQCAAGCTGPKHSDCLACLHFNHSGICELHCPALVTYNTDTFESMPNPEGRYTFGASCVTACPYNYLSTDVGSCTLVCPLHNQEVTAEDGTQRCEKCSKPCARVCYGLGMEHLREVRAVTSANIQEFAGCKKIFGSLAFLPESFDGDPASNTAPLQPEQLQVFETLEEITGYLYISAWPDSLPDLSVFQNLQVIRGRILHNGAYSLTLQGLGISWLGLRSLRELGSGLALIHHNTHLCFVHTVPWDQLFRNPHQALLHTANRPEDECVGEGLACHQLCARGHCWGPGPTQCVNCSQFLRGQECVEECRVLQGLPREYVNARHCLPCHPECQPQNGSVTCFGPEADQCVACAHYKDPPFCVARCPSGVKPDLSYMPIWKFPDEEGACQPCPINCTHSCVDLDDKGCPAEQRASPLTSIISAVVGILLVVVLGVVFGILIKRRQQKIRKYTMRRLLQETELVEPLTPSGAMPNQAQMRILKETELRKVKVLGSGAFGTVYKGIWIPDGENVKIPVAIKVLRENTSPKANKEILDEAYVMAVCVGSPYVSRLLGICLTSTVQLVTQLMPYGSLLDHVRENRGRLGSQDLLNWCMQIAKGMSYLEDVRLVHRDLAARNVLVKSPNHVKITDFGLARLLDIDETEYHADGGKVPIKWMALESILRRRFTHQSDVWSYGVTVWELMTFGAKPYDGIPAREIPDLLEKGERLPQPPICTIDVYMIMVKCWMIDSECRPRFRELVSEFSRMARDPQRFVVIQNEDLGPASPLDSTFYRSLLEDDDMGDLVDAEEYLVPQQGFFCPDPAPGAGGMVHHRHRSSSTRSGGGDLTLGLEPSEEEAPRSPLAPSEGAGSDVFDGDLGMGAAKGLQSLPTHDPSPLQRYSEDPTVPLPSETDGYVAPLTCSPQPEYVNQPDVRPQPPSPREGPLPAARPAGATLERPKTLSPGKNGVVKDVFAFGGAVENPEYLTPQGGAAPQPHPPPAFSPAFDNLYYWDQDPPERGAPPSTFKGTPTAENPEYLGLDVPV

On to `CN(C)CC=CC(=O)Nc1cc2c(Nc3ccc(F)c(Cl)c3)ncnc2cc1O[C@H]1CCOC1` [Afatinib, N-[4-[(3-Chloro-4-fluorophenyl)amino]-7-[[(3S)-tetrahydro-3-furanyl]oxy]-6-quinazolinyl]-4(dimethylamino)-2-butenamide], for which the GI50 came out at 545 nM in series [1]; 2.05 nM in [2]; 41.3 nM in series [3]; 6.5 nM in series [4]; 8.08 nM in series [6]. Moreover, the IC50 in series [5] (NCI-H2170, read-out: Cellular Anti-Proliferative Assay IC50) is 11 nM; in series [7] (NCI-H1781, read-out: Cellular Anti-Proliferative Assay IC50) it was 66 nM; in series [8] (Calu-3, read-out: Cellular Anti-Proliferative Assay IC50), 31 nM.

On to `C=CC(=O)Nc1cc(Nc2nccc(-c3cn(C)c4ccccc34)n2)c(OC)cc1N(C)CCN(C)C` [Osimertinib, N-(2-{2-dimethylaminoethyl-methylamino}-4-methoxy-5-{[4-(1-methylindol-3-yl)pyrimidin-2-yl]amino}phenyl)prop-2-enamide], for which the GI50 is more than 1000 nM in series [1]; 7.23 nM in series [2]; more than 1000 nM in [3]; 88.5 nM in series [4]; 68.3 nM in series [6]. For the same compound, the IC50 in [9] amounted to 647 ± 3 nM; in series [10] it was 303 nM; in series [12] it was 426 ± 3 nM; in series [5] (NCI-H2170, H-2170, ERBB2 amplification, normoxic conditions, read-out: Cellular Anti-Proliferative Assay IC50), 113 nM; in [7] (NCI-H1781, H-1781, ERBB2 p.G776Ins V_G/C, normoxic conditions, read-out: Cellular Anti-Proliferative Assay IC50) it was 406 nM; in series [8] (CALU-3, ERBB2 amplification, normoxic conditions, read-out: Cellular Anti-Proliferative Assay IC50), 188 nM. In addition, the tumor regression entry is “caused tumor regression, which was more transient” in [11] (5 mg/kg QD, first three weeks) and “induced sustained tumor regression until study end at day 60” in series [11] (25 mg/kg QD).

Regarding `C=CC(=O)N1CCC(Oc2cc3c(Nc4ccc(Cl)c(Cl)c4F)ncnc3cc2OC)CC1` [Poziotinib], the GI50 in [1] turned out to be 316 nM; in [13] it was 22.8 nM; in series [14], 2.2 nM; in series [2], 0.02 nM; in series [15] it was 27.9 nM; in series [16], 0.7 nM. Moreover, the GI50 in [3] was 27.9 nM; in series [4], 1.03 nM; in series [17], 28 nM; in series [18] it was 1.6 nM; in series [19] it was more than 1000 nM; in series [20], 7.1 nM. Also, the GI50 in series [21] was less than 0.457 nM; in series [6] it was 0.64 nM; in series [22] it was more than 1000 nM; in series [23], less than 0.457 nM.

On to `C=CC(=O)Nc1cc(Nc2nccc(-n3cc(CN(C)C)c(-c4ccccc4)n3)n2)c(OC)cc1N1CCOCC1` [YH25448], for which, in [24] (setting [25]), the body weight result is reported as “no obvious loss of the body weight” and the “intracranial tumor growth inhibition vs osimertinib” value was “more effectively inhibited intracranial tumor growth than osimertinib”. Also, the intracranial tumor regression entry in series [24] (H1975 xenograft model) is “showed intracranial tumor regression”.
